Reference: patent US20100311729A1, “Substituted imidazopyridazines and pyrrolopyrimidines as lipid kinase inhibitors” (priority 2007, published 2010)

What was measured:
Format in all cases: biochemical
PI3K alfa = biological target: T1, PI3K alfa (Homo sapiens, UniProt P42336); test: PI3 kinase assay (Kinase-Glo luminescence), PI3K alfa; conditions: Enzymatic Data; read-out: PI3K alfa IC50 [umol]
T1 construct: for the p110-a subunit (with a deletion of the first 20 amino acids); His tag (C); made in house; host or cells: baculovirus; Tn5 (Trichoplusia ni) or TiniPro insect cells
Method in brief: (§1)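 Recombinant PI3K constructs (alfa 10 nM, delta 10 nM, gamma 150 nM) with 1 μM ATP and 10 μg/mL phosphatidylinositol in Tris pH 7.5, MgCl2, NaCl, CHAPS, DTT; 60 min (alfa, delta) or 120 min (gamma) at room temperature. ATP depletion read by Kinase-Glo luminescence; IC50 from 4-parameter logistic fit over 8 concentrations.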

PI3K beta = biological target: T2, PI3K beta (Homo sapiens, UniProt P42338); test: PI3 kinase assay (Kinase-Glo luminescence), PI3K beta; conditions: Enzymatic Data; read-out: PI3K beta IC50 [umol]
T2 construct: for the full-length p110-b subunit are generated and fused by overlapping PCR; His tag (C); made in house; host or cells: baculovirus; Tn5 (Trichoplusia ni) or TiniPro insect cells
Method in brief: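 PI3Kβ (25 nM, BV-949) with 10 μg/mL phosphatidylinositol in Tris pH 7.5/MgCl2/NaCl/CHAPS/DTT buffer; reaction started with 1 μM ATP, 60 min at room temperature. ATP depletion read by Kinase-Glo luminescence; 8-point dilutions, IC50 by four-parameter logistic fit.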

PI3K delta = biological target: T3, PI3K delta (Homo sapiens, UniProt O00329); test: PI3 kinase assay (Kinase-Glo luminescence), PI3K delta; conditions: Enzymatic Data; read-out: PI3K delta IC50 [umol]
T3 construct: for the full-length p110-d subunit are generated and fused by overlapping PCR; His tag (C); made in house; host or cells: baculovirus; Tn5 (Trichoplusia ni) or TiniPro insect cells
Method in brief: as §1

PI3K gamma = biological target: T4, PI3K gamma (Homo sapiens, UniProt P48736); test: PI3 kinase assay (Kinase-Glo luminescence), PI3K gamma; conditions: Enzymatic Data; read-out: PI3K gamma IC50 [umol]
T4 construct: PI3Kγ BV-950 p110g(D144aa)-C-Term His Tag; His tag (C); made in house; host or cells: construct from the Roger Williams lab (MRC LMB) in pVL1393; baculovirus; Tn5 (Trichoplusia ni) or TiniPro insect cells
Method in brief: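 Percent inhibition at eight concentrations (typically 10 to 0.003 […]) fitted to a four-parameter logistic model to give IC50. Reaction initiated with ATP; final ATP 1 μM and phosphatidylinositol 10 μg/mL; ATP consumption read by Kinase-Glo luminescence.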

T2 sequence (P42338 with tags, fused parts or gaps limits assumed): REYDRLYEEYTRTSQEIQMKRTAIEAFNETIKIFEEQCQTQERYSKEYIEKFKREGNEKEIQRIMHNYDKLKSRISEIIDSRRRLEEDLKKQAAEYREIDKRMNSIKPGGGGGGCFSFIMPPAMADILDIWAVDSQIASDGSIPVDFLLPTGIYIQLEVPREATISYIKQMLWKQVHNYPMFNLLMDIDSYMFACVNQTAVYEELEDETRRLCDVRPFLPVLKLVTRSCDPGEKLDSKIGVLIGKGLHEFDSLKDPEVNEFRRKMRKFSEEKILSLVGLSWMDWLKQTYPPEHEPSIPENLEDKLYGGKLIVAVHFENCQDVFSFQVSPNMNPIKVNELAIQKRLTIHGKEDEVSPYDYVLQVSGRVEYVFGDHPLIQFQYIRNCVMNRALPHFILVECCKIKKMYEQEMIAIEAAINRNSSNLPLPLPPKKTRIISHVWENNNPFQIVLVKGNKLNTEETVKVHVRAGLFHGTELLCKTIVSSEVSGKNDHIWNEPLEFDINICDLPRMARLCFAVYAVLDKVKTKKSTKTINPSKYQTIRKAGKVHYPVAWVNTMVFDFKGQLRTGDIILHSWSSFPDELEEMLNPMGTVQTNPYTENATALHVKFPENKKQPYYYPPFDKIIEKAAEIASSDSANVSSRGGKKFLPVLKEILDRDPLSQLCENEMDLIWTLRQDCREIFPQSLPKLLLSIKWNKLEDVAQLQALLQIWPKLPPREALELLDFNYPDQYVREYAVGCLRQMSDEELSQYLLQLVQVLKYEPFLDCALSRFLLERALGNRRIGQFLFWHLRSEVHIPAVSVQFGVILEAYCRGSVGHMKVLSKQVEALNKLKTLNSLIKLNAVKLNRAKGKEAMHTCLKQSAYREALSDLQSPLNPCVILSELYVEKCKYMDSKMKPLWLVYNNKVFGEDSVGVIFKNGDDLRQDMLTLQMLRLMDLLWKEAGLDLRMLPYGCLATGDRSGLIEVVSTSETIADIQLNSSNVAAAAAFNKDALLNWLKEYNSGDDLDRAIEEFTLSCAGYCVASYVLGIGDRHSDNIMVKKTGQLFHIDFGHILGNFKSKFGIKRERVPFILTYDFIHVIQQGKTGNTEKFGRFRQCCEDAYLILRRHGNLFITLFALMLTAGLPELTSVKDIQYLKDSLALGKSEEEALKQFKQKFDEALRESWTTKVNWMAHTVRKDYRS
T1 sequence (P42336 with tags, fused parts or gaps limits assumed): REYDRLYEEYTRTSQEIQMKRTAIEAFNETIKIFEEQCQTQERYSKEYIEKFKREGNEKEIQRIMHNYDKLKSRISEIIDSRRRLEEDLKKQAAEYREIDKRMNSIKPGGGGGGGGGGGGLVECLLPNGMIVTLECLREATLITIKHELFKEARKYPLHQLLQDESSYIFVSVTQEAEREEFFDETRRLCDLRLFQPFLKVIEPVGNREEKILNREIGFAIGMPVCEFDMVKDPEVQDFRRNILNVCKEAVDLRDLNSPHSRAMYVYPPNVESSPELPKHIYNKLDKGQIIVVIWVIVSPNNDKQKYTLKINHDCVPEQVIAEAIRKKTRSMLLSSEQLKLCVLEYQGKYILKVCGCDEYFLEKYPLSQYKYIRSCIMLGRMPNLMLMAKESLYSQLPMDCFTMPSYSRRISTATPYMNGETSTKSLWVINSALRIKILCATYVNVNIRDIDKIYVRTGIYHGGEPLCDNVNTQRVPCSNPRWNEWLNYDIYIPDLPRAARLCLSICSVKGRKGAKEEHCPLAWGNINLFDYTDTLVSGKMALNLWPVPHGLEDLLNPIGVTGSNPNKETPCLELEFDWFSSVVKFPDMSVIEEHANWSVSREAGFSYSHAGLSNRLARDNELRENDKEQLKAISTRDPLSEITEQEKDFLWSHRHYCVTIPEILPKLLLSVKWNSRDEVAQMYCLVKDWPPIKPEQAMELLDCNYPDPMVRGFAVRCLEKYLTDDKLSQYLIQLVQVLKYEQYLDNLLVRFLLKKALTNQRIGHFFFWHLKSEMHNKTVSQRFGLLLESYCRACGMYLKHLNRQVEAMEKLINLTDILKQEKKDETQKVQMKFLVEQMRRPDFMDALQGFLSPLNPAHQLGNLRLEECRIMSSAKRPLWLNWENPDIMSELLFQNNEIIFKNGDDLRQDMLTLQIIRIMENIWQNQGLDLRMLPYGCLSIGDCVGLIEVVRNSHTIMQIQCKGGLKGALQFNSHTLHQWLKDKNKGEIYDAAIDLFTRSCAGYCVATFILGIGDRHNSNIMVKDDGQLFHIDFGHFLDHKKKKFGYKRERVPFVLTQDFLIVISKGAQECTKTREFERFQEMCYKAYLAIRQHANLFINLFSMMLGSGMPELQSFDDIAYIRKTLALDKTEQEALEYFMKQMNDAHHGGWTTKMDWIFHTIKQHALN
T4 sequence (P48736 144-1102 limits assumed): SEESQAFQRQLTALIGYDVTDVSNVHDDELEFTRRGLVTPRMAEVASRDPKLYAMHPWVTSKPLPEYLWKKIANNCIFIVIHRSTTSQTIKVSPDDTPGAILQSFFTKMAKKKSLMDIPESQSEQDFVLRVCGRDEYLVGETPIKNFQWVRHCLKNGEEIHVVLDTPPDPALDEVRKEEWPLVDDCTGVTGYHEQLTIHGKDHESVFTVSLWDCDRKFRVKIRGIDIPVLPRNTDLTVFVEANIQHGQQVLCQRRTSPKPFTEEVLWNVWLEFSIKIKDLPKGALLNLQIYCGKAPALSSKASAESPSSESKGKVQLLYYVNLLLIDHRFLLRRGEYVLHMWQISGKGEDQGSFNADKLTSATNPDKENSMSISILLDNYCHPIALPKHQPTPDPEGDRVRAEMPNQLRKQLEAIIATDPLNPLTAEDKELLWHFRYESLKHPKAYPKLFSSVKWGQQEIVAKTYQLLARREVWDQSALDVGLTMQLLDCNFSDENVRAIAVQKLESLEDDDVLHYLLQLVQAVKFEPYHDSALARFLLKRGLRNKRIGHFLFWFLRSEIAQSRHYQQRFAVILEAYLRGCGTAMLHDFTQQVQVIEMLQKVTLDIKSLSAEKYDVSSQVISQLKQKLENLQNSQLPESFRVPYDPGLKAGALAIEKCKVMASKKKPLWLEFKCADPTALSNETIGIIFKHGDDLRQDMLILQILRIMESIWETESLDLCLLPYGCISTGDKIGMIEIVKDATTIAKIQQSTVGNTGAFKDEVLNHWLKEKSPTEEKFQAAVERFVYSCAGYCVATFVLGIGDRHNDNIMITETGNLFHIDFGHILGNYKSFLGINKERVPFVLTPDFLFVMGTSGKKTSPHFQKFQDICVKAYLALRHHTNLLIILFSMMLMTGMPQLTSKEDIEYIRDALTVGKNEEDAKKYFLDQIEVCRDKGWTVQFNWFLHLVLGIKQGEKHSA
T3 sequence (O00329 with tags, fused parts or gaps limits assumed): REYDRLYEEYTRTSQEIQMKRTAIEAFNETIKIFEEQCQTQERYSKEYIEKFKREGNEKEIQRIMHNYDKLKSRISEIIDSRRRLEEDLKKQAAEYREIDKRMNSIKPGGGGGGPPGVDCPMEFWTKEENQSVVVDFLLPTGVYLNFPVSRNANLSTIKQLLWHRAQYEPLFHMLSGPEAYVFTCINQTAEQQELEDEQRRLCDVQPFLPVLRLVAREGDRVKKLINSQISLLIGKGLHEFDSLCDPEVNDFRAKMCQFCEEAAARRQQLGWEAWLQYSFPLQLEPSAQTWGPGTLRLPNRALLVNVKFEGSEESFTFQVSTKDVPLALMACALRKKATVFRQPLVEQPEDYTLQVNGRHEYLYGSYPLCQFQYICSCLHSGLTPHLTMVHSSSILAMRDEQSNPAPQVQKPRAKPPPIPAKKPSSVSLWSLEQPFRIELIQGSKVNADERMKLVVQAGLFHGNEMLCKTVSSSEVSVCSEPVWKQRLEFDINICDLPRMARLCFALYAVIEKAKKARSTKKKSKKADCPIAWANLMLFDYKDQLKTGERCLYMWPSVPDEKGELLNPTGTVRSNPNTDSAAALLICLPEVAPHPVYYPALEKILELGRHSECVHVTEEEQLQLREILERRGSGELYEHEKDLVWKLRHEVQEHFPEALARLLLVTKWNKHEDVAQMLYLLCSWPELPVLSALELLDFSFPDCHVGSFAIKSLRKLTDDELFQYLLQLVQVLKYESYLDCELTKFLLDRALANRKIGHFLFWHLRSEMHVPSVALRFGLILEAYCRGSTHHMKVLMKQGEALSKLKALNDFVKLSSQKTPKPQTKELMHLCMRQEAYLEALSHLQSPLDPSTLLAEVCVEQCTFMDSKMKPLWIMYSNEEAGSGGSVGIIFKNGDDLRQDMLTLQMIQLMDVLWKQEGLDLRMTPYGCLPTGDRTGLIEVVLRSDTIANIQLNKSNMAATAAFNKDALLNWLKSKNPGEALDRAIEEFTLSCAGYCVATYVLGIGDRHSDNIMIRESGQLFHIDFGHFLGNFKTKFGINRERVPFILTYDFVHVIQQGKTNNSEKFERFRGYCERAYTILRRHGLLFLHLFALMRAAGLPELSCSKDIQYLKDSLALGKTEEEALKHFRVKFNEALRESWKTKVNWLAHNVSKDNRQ

Row | SMILES | IC50 (PI3K alfa) [nM] | IC50 (PI3K beta) [nM] | IC50 (PI3K delta) [nM] | IC50 (PI3K gamma) [nM]
1 | CC(=O)NCCOc1ccc(-c2ccc3ncc(-c4cnc(N)c(C(F)(F)F)c4)n3n2)cc1 [Example 75, N-(2-{4-[3-(6-Amino-5-trifluoro-methyl-pyridin-3-yl)-imidazo [1,2-b]pyridazin-6-yl]-phenoxy}-ethyl)-acetamide] | 75 | 651 | 135 | 3090
2 | CC(=O)NCCn1cc(-c2ccc3ncc(-c4cnc(N)c(C(F)(F)F)c4)n3n2)ccc1=O [Example 76, N-(2-{5-[3-(6-Amino-5-trifluoro-methyl-pyridin-3-yl)-imidazo [1,2-b]pyridazin-6-yl]-2-oxo-2H-pyridin-1-yl}-ethyl)-acetamide] | 158 | 670 | 151 | 3220
3 | COc1cccc(-c2ccc3ncc(-c4cnc(N)c(C(F)(F)F)c4)n3n2)c1 [Example 77, 5-[6-(3-Methoxy-phenyl)-imidazo [1,2-b]pyridazin-3-yl]-3-trifluoro-methyl-pyridin-2-ylamine] | 190 | 1120 | 623 | 2560
4 | COc1cccc(-c2ccc3ncc(-c4cnc5[nH]ccc5c4)n3n2)c1 [Example 78, 6-(3-Methoxy-phenyl)-3-{1H-pyrrolo [2.3-b]pyridin-5-yl)-imidazo [1,2-b] pyridazine] | 130 | 2060 | 1060 | 4040
5 | Nc1ncc(-c2ccc3ncc(-c4ccc(C(=O)NCCN5CCOCC5)cc4)n3n2)cc1C(F)(F)F [Example 80, 4-[6-(6-Amino-5-trifluoro-methyl-pyridin-3-yl)-imidazo [1,2-b]pyridazin-3-yl]-N-(2-morpholin-4-yl-ethyl)-benzamide] | 15 | 210 | 57 | 1160
6 | Nc1ncc(-c2ccc3ncc(-c4ccc(C(=O)NCCCN5CCOCC5)cc4)n3n2)cc1C(F)(F)F [Example 81, 4-[6-(6-Amino-5-trifluoromethyl-pyridin-3-yl)-imidazo [1,2-b]pyridazin-3-yl]-N-(3-morpholin-4-yl-propyl)-benzamide] | 21 | 82 | 13 | 638
7 | CC(=O)N1CCN(C(=O)c2ccc(-c3cnc4ccc(-c5cnc(N)c(C(F)(F)F)c5)nn34)cc2)CC1 [Example 82, 1-(4-{4-[6-(6-Amino-5-trifIuoro-methyl-pyridin-3-yl)-imidazo [1,2-b]pyridazin-3-yl]-benzoyl}-piperazin-1-yl)-ethanone] | 18 | 169 | 7 | 526
8 | CN(C)C(=O)c1ccc(CNC(=O)c2ccc(-c3cnc4ccc(-c5cnc(N)c(C(F)(F)F)c5)nn34)cc2)cc1 [Example 83, N-(4-N-dimethylacetyl-benzyl)-4-[6-(6-amino-5-trifluoro-methyl-pyridin-3-yl)-imidazo [1,2-b]pyridazin-3-yl]-benzamide] | 27 | 166 | 23 | 558
9 | CC(=O)c1ccc(CNC(=O)c2ccc(-c3cnc4ccc(-c5cnc(N)c(C(F)(F)F)c5)nn34)cc2)cc1 [Example 84, N-(4-Acetyl-benzyl)-4-[6-(6-amino-5-trifluoromethyl-pyridin-3-yl)-imidazo [1,2-b]pyridazin-3-yl]-benzamide] | 87 | 5560 | 308 | 3240
10 | Nc1ncc(-c2ccc3ncc(-c4ccc(C(=O)N5CCN(Cc6ccccn6)CC5)cc4)n3n2)cc1C(F)(F)F [Example 85, {4-[6-(6-Amino-5-trifluoromethyl-pyridin-3-yl)-imidazo[1,2-b]pyridazin-3-yl]-phenyl}-(4-pyridin-2-ylmethyl-piperazin-1-yl)-methanone] | 19 | 340 | 15 | 129
11 | CC(C)C(=O)NCCOc1ccc(-c2ccc3ncc(-c4cnc(N)c(C(F)(F)F)c4)n3n2)cc1 [Example 86, N-(2-{4-[3-(6-Amino-5-trifluoro-methyl-pyridin-3-yl)-imidazo [1,2-b]pyridazin-6-yl]-phenoxy}-ethyl)-isobutyramide] | 94 | 701 | 97 | 111
12 | CNc1ncc(-c2cnc3ccc(-c4cnc(N)c(C(F)(F)F)c4)nn23)cn1 [Example 87, {5-[6-(6-Amino-5-trifluoro-methyl-pyridin-3-yl)-imidazo [1,2-b]pyridazin-3-yl]-pyrimidin-2-yl)-methylamine] | 29 | 10 | 18 | 1230
13 | Nc1ncc(-c2ccc3ncc(-c4ccc(OCCn5cccn5)cc4)n3n2)cc1C(F)(F)F [Example 88, 5-{3-[4-(2-Pyrazol-1-yl-ethoxy)-phenyl]-imidazo[1,2-b]pyridazin-6-yl}-3-trifluoro-methyl-pyridin-2-ylamine] | 128 | 993 | 148 | 2430
14 | Nc1ncc(-c2cnc3ccc(-c4ccc(OCCCN5CCCC5=O)cc4)nn23)cc1C(F)(F)F [Example 89, 1-(3-{4-[3-(6-Amino-5-trifluoro-methyl-pyridin-3-yl)-imidazo [1,2-b]pyridazin-6-yl]-phenoxy}-propyl)-pyrrolidin-2-one] | 74 | 2760 | 88 | 543
15 | Nc1ncc(-c2cnc3ccc(-c4ccc(OCCCN5CCCC5=O)c(F)c4)nn23)cc1C(F)(F)F [Example 90, 1-(3-{4-[3-(6-Amino-5-trifluoro-methyl-pyridin-3-yl)-imidazo [1,2-b]pyridazin-6-yl]-2-fluoro-phenoxy}-propyl)-pyrrolidin-2-one] | 1140 | > 9100 | 1110 | 4690
16 | O=C1CCCN1CCCOc1ccc(-c2ccc3ncc(-c4cnc5[nH]ccc5c4)n3n2)cc1F [Example 91, 1-(3-{2-Fluoro-4-[3-(1H-pyrrolo [2,3-b]pyridin-5-yl)-imidazo [1,2-b]pyridazin-6-yl]-phenoxy}-propyl)-pyrrolidin-2-one] | 155 | 7620 | 530 | 6540
17 | Nc1ncc(-c2cnc3ccc(-c4ccc(OCCn5cccn5)cc4)nn23)cc1C(F)(F)F [Example 92, 5-{6-[4-(2-Pyrazol-1-yl-ethoxy)-phenyl]-imidazo [1,2-b]pyridazin-3-yl}-3-trifluoro-methyl-pyridin-2-ylamine] | 573 | 4110 | 1240 | > 9100
18 | c1cnn(CCOc2ccc(-c3ccc4ncc(-c5cnc6[nH]ccc6c5)n4n3)cc2)c1 [Example 93, 6-[4-(2-Pyrazol-1-yl-ethoxy)-phenyl]-3-(1H-pyrrolo [2,3-b]pyridin-5-yl)-imidazo [1,2-b] pyridazine] | 157 | 6930 | 1270 | 5840
19 | Nc1ncc(-c2cnc3ccc(-c4ccc(OCCN5CCCC5=O)c(F)c4)nn23)cc1C(F)(F)F [Example 94, 1-(2-{4-[3-(6-Amino-5-trifluoro-methyl-pyridin-3-yl)-imidazo [1,2-b]pyridazin-6-yl]-2-fluoro-phenoxy}-ethyl)-pyrrolidin-2-one] | 62 | 441 | 146 | 2150
20 | Nc1ncc(-c2ccc3ncc(-c4ccc(C(=O)O)c(F)c4)n3n2)cc1C(F)(F)F [Example 95, 4-[6-(6-Amino-5-trifluoro-methyl-pyridin-3-yl)-imidazo [1,2-b]pyridazin-3-yl]-2-fluoro-benzoic acid] | 6 | 59 | 20 | 928
21 | O=C1CCCN1CCOc1ccc(-c2ccc3ncc(-c4cnc5[nH]ccc5c4)n3n2)cc1F [Example 96, 1-(2-{2-Fluoro-4-[3-(1H-pyrrolo [2,3-b]pyridin-5-yl)-imidazo [1,2-b]pyridazin-6-yl]-phenoxy)-ethyl)-pyrrolidin-2-one] | 501 | 4710 | 1090 | 7660
22 | Nc1ncc(-c2cnc3ccc(-c4ccc(OCCN5CCCC5=O)cc4)nn23)cc1C(F)(F)F [Example 97, 1-(2-{4-[3-(6-Amino-5-trifluoro-methyl-pyridin-3-yl)-imidazo [1,2-b]pyridazin-6-yl]-phenoxy}-ethyl)-pyrrolidin-2-one] | 75 | 1550 | 56 | 1020
